Assay results from patent publication US20110093959A1, “CRYPTOTIS PARVA SCREENING MODEL FOR ANTIEMETIC POTENTIAL” (priority 2008, published 2011).
“And” between values parts separate entries of the source, which are not always exact repeats. Equal values may be shown once.

How the values were obtained:
Assay type in all cases: in vivo, Cryptotis parva
[1] = system: CIS-induced emesis in the Least Shrew; assay: Tropisetron, Δ^9-THC and dexamethasone alone or in combination against CIS (20 mg/kg)-induced emesis, 60 min
Method: Briefly, all animals were randomly divided into two groups. On the test day, shrews were habituated to the laboratory environment for at least 1 hr prior to experimentation. […] All drugs were administered at a volume of 0.1 ml/10 g body weight. Immediately following the second injection, each shrew was placed in the observation cage, and both the number of animals vomiting per group and the frequency of vomiting (oral ejections of food or liquid) were recorded for the next 60 min
Poisson regression and logistic regression analyses were employed for two-way analysis of vomiting frequency and protection from emesis, respectively. […] Data regarding the frequency of emesis were analyzed by the Kruskal-Wallis nonparametric one-way analysis of variance (ANOVA), and post hoc analysis by Dunn's multiple comparisons test. The incidence of emesis (number of animals vomiting) was analyzed by Fisher's exact test to determine whether there were differences between groups, and when appropriate, pairwise comparisons were also made. A p value of<0.05 was necessary to achieve statistical significance.

Fos = Fos expression in the dorsal vagal complex resulting from CIS-induced vomiting
Method: After the appropriate time period for acute or delayed phase vomiting, shrews were anesthetized with a lethal dose of pentobarbital (100 mg/kg) and perfused transcardially via blunted needle with a peristaltic pump. The shrew was perfused with ice cold 4% paraformaldehyde and 5% picric acid in pH 7.4, 0.1 M phosphate buffer (10 min). Brains were removed and stored in 30% sucrose in 0.1 M PB overnight, then embedded in blocks of 12% gelatin in 30% sucrose/PB. The blocks were postfixed for 3 hr in 2% paraformaldehyde/PB, then rinsed and immersed in 30% sucrose/PB until they sank (usually 1-2 hr). The brain block was cut sagittally on a freezing benchtop microtome (Leica) at 30 μm into 5 series, and stored in PB with 0.03% sodium azide.
Immunolabeling was accomplished by blocking a free-floating series with 10% normal horse serum (NHS) and 3% hydrogen peroxide in PB with 0.3% Tri-ton X-100 (TX) for 30 min. After rinsing in PB, tissue was put in sheep anti-Fos polyclonal antibody (Chemicon/Millipore, Temecula, Calif.; 1:600), with 5% NHS and 0.3% TX in PB, and incubated for about 42 hr at room temperature (RT) with gentle shaking. After rinsing in PB, the tissue was placed in biotinylated donkey anti-sheep IgG secondary antibody (Jackson Immunoresearch, West Grove, Pa.; 1:600) diluted in the same diluent described for the primary antibody, and the tissue incubated at RT with shaking for 75 min Tissue was then rinsed and incubated for 60 min in HRP-conjugated avidin-biotin complex (Vector Labs, Burlingame, Calif.; Vectastain kit diluted 1:2) in PB. Tissue was then rinsed twice in PB, then once in imidazole-acetate buffer (0.1 M, pH 7.4), then reacted for 6 min in 0.0006% hydrogen peroxide with 2% nickel ammonium sulfate-enhanced diaminobenzidine (DAB, 0.05% in 0.1 M imidazole-acetate buffer). All reagents for DAB processing were purchased from Sigma-Aldrich. […]

[2] = system: CIS-induced vomiting in the Least Shrew; assay: THC and SR141716A on CIS (10 mg/kg)-induced vomiting, acute and delayed phase; details: CIS 10 mg/kg i.p., Δ^9-THC 2.5 mg/kg i.p., SR141716A 2 mg/kg i.p.
[3] = 1 mg/kg i.p., administered alone
[4] = 5 mg/kg i.p., administered alone
[5] = Δ^9-THC 1 mg/kg with 0.1 mg/kg tropisetron
[6] = Δ^9-THC 5 mg/kg with 0.025 mg/kg tropisetron
[7] = Δ^9-THC 5 mg/kg with 0.1 mg/kg tropisetron
[8] = Δ^9-THC 5 mg/kg with 0.25 mg/kg tropisetron

For `CCCCCc1cc(O)c2c(c1)OC(C)(C)[C@@H]1CCC(C)=C[C@@H]21` [Δ^9-THC, Δ^9-tetrahydrocannabinol], the “reduction in frequency of CIS-induced emesis” value ([1]; 0.25 mg/kg i.p., administered alone) was 59.3%, the “reduction in frequency of CIS-induced emesis” value ([1]; 0.5 mg/kg i.p., administered alone) was 66.7% and the “reduction in frequency of CIS-induced emesis” value [1, 3] was 83.7%. The “reduction in percentage of shrews vomiting in response to CIS” value (“reduction in percentage” below) [1, 3] was 64%, the “reduction in percentage” value ([1]; 2.5 mg/kg i.p., administered alone) was 83.3% and 83% and the “reduction in frequency of CIS-induced emesis” value [1, 4] was 96.7%. The “reduction in percentage” value [1, 4] was 92% and 91.6%, the “reduction in percentage” value ([1]; 10 mg/kg i.p., administered alone) was 100% and the “additive or synergistic effect on percentage of animals vomiting” value ([1]; tested combinations of Δ^9-THC and tropisetron) was “no additive or synergistic antiemetic effects”. For the same compound, the “reduction in frequency of vomiting” value ([1]; Δ^9-THC 0.25 mg/kg coadministered with 5 mg/kg DEX) was 55.5%, the “reduction in percentage” value ([1]; Δ^9-THC 0.25 mg/kg in shrews pretreated with 5 mg/kg DEX) was 42% and the “reduction in frequency of CIS-induced emesis” value ([1]; Δ^9-THC 0.25 mg/kg with 0.025 mg/kg tropisetron) was 72.6%. For the same compound, the “reduction in frequency of CIS-induced emesis” value ([1]; Δ^9-THC 0.25 mg/kg with 0.1 mg/kg tropisetron) was 69.7%, the “reduction in frequency of CIS-induced emesis” value ([1]; Δ^9-THC 0.5 mg/kg with 0.025 mg/kg tropisetron) was 56.1% and the “reduction in frequency of CIS-induced emesis” value ([1]; Δ^9-THC 0.5 mg/kg with 0.1 mg/kg tropisetron) was 74.6%. For the same compound, the “reduction in frequency of CIS-induced emesis” value ([1]; Δ^9-THC 1 mg/kg with 0.025 mg/kg tropisetron) was 61.6%, the “reduction in frequency of CIS-induced emesis” value [1, 5] was 88% and the “reduction in number of shrews vomiting” value [1, 5] was 77%. The “reduction in frequency of CIS-induced emesis” value ([1]; Δ^9-THC 1 mg/kg with 0.25 mg/kg tropisetron) was 91%, the “reduction in percentage” value ([1]; Δ^9-THC 2.5 mg/kg with DEX 0.25 mg/kg) was 77% and the “reduction in percentage” value ([1]; Δ^9-THC 2.5 mg/kg with DEX 1 mg/kg) was 92%. For the same compound, the “reduction in percentage” value ([1]; Δ^9-THC 2.5 mg/kg with DEX 5 mg/kg) was 79%, the “reduction in percentage” value ([1]; Δ^9-THC 2.5 mg/kg with DEX 10 mg/kg) was 77% and the “reduction in percentage” value ([1]; Δ^9-THC 2.5 mg/kg with DEX 20 mg/kg) was 50%. For the same compound, the “reduction in frequency of CIS-induced emesis” value [1, 6] was 86.3%, the “reduction in percentage” value [1, 6] was 75% and the “reduction in frequency of CIS-induced emesis” value [1, 7] was 97.7%. The “reduction in percentage” value [1, 7] was 88%, the “reduction in frequency of CIS-induced emesis” value [1, 8] was 100% and the “reduction in percentage” value [1, 8] was 100%. The “reduction in percentage” value ([1]; Δ^9-THC 5 mg/kg with DEX 0.25 mg/kg) was 83%, the “reduction in percentage” value ([1]; Δ^9-THC 5 mg/kg with DEX 1 mg/kg) was 92% and the “reduction in percentage” value ([1]; Δ^9-THC 5 mg/kg with DEX 5 mg/kg) was 77%. The “reduction in percentage” value ([1]; Δ^9-THC 5 mg/kg with DEX 10 mg/kg) was 92%, the “reduction in percentage” value ([1]; Δ^9-THC 5 mg/kg with DEX 20 mg/kg) was 77% and the “reduction in percentage” value ([1]; Δ^9-THC 10 mg/kg with DEX 0.25 mg/kg) was 92%. For the same compound, the “reduction in percentage” value ([1]; Δ^9-THC 10 mg/kg with DEX 1 mg/kg) was 83%, the “reduction in percentage” value ([1]; Δ^9-THC 10 mg/kg with DEX 5 mg/kg) was 67% and the “reduction in percentage” value ([1]; Δ^9-THC 10 mg/kg with DEX 10 mg/kg) was 92%. For the same compound, the “reduction in percentage” value ([1]; Δ^9-THC 10 mg/kg with DEX 20 mg/kg) was 75%, the “combination efficacy in reducing the frequency of emesis” value ([1]; Δ^9-THC 0.25 and 0.5 mg/kg combined with tropisetron 0.025 and 0.1 mg/kg) was “significantly greater additive efficacy” and the “effect on frequency of emesis” value ([1]; Δ^9-THC combined with 1 mg/kg or 5 mg/kg tropisetron) was “failed to produce significant reductions”. For the same compound, the “additive or synergistic antiemetic activity” value ([1]; Δ^9-THC combined with DEX, at the doses tested) was “no significant additive or synergistic antiemetic activity”, the “number of Fos-immunopositive nuclei vs vehicle injections” value (Fos; acute phase of CIV, NTS, AP and DMNX) was “significantly (P<0.05) reduced” and the “number of Fos-immunopositive nuclei vs vehicle-injected animals” value (Fos; delayed phase, NTS and DMNX) was “significantly fewer”. The “Number vomited per total in group” value ([2]; Acute phase) was 1/8 and the “Number vomited per total in group” value ([2]; Delayed phase) was 2/9.
